How the values were obtained:
[1] = system: green peach aphid (Myzus persicae); assay: Myzus test (MYZUPE spray treatment), Example 17; assay type: in vivo; details: china cabbage leaf discs sprayed, after 6 days
Description: Myzus Test (MYZUPE Spray Treatment)
• Solvent: 78 parts by weight of acetone • 1.5 parts by weight of dimethylformamide • Emulsifier: 0.5 part by weight of alkylaryl polyglycol ether
To prepare an appropriate active ingredient formulation, 1 part by weight of active ingredient is mixed with the stated amounts of solvent and emulsifier, and the concentrate is diluted with emulsifier-containing water to the desired concentration. Leaf discs from china cabbage (Brassica pekinensis) infested by all stages of the green peach aphid (Myzus persicae) are sprayed with an active ingredient formulation of the desired concentration.
After 6 days, the efficacy in % is determined. 100% means that all aphids were killed; 0% means that no aphids were killed.

[2] = logP by HPLC on reverse-phase column (EEC Directive 79/831 Annex V.A8); assay type: physicochemical
Description: The logP values reported in the above Tables and Preparation Examples were determined according to EEC Directive 79/831 Annex V.A8 by HPLC (High Performance Liquid Chromatography) on a reverse-phase column (C18). Temperature 43° C.

[3] = system: mustard beetle (Phaedon cochleariae); assay: Phaedon test (PHAECO spray treatment), Example 7; assay type: in vivo; details: application rate 20 g/ha, china cabbage leaf discs sprayed, after 7 days
Description: Phaedon Test (PHAECO Spray Treatment)
(§1) • Solvent: 78.0 parts by weight of acetone • 1.5 parts by weight of dimethylformamide • Emulsifier: 0.5 part by weight of alkylaryl polyglycol ether
To prepare an active ingredient formulation, 1 part by weight of active ingredient is mixed with the stated amounts of solvent and emulsifier, and the concentrate is diluted with emulsifier-containing water to the desired concentration. Leaf discs from china cabbage (Brassica pekinensis) are sprayed with an active ingredient formulation of the desired concentration and, after drying, populated with larvae of the mustard beetle (Phaedon cochleariae).
After 7 days, the efficacy in % is determined. 100% means that all beetle larvae were killed; 0% means that no beetle larvae were killed.

[4] = system: armyworm (Spodoptera frugiperda); assay: Spodoptera frugiperda test (SPODFR spray treatment), Example 15; assay type: in vivo; details: maize leaf discs sprayed, after 7 days
Description: Spodoptera frugiperda Test (SPODFR Spray Treatment)
as §1
To prepare an appropriate active ingredient formulation, 1 part by weight of active ingredient is mixed with the stated amounts of solvent and emulsifier, and the concentrate is diluted with emulsifier-containing water to the desired concentration. Leaf discs from maize (Zea mays) are sprayed with an active ingredient formulation of the desired concentration and, after drying, populated with caterpillars of the armyworm (Spodoptera frugiperda).
After 7 days, the efficacy in % is determined. 100% means that all caterpillars were killed; 0% means that no caterpillars were killed.

[5] = HPLC, C18 reverse phase, 43° C., acidic range pH 2.7, calibration with alkan-2-ones

Row | Compound | efficacy in % ([1]; application rate 100 g/ha) | logP ([2]; HPLC-MS) | efficacy in % [3] | further results
1 | O=C(/C=C/c1ccc(C(=O)NCc2ccco2)c(C(F)(F)F)c1)NC(c1cccc(C(F)(F)F)c1)C(F)(F)F (stereo not shown) [Ia-169] | 100% | HPLC-MS: logP = 3.63; mass | – | –
2 | Cc1cc(/C=C/C(=O)NC(c2cccc(C(F)(F)F)c2)C(F)(F)F)ccc1C(=O)NC1CCOCC1 (stereo not shown) [Ia-86] | – | HPLC-MS: logP = 2.89 mass | 100% | –
3 | CCC(=O)NCc1ccc(/C=C/C(=O)NC(c2cccc(C(F)(F)F)c2)C(F)(F)F)cc1F (stereo not shown) [Ia-276] | 100% | – | – | efficacy in % ([4]; application rate 100 g/ha): 100%; logP ([2]; HPLC-MS, HPLC on reverse-phase column): HPLC-MS: logP = 3.12; mass
4 | COC(=O)N(C)NC(=O)c1ccc(/C=C/C(=O)NC(c2cccc(C(F)(F)F)c2)C(F)(F)F)cc1C(F)(F)F (stereo not shown) [Ia-170] | 100% | HPLC-MS: logP = 3.23; mass | – | efficacy in % ([4]; application rate 100 g/ha): 83%
5 | O=C(/C=C/c1ccc(C(=O)NC2CCCNC2=O)c(Cl)c1)NC(c1cccc(C(F)(F)F)c1)C(F)(F)F (stereo not shown) [Ia-106] | – | HPLC-MS: logP = 2.61 mass | 100% | –
6 | CCn1c(C(=O)NC(c2cccc(C(F)(F)F)c2)C(F)(F)F)cc2cc(C(=O)NC3CC3)c(Cl)cc21 (racemic) [Ic-26] | 100% | – | – | efficacy in % ([4]; application rate 100 g/ha): 100%
7 | O=C(/C=C/c1ccc(C(=O)NCC(F)F)c(Br)c1)NC(c1cccc(C(F)(F)F)c1)C(F)(F)F (stereo not shown) [Ia-104] | – | HPLC-MS: logP = 3.23 mass | 100% | –
8 | CC(=O)N(Cc1ccccn1)Cc1ccc(/C=C/C(=O)NC(c2cccc(C(F)(F)F)c2)C(F)(F)F)cc1F (stereo not shown) [Ia-252] | 100% | HPLC-MS: logP = 2.72; mass | – | efficacy in % ([4]; application rate 100 g/ha): 100%
9 | O=C(/C=C/c1ccc(C(=O)Nc2ccccn2)c(Cl)c1)NC(c1cccc(C(F)(F)F)c1)C(F)(F)F (stereo not shown) [Ia-98] | – | HPLC-MS: logP = 3.47 mass | 100% | –
10 | CC(NC(=O)c1ccc(C=CC(=O)NC(c2cccc(C(F)(F)F)c2)C(F)(F)F)cc1Cl)c1nccs1 (mixture of isomers) [Ia-187] | 80% | HPLC-MS: logP = 3.4; mass | – | –
11 | COC(=O)NNC(=O)c1ccc(/C=C/C(=O)NC(c2cccc(C(F)(F)F)c2)C(F)(F)F)cc1Cl (stereo not shown) [Ia-109] | – | HPLC-MS: logP = 2.72 mass | 100% | –
12 | CC(C)ONC(=O)c1ccc(/C=C/C(=O)NC(c2cccc(C(F)(F)F)c2)C(F)(F)F)cc1Cl (racemic) [Ia-194] | 90% | HPLC-MS: logP = 3.29; mass | – | –
13 | O=C(/C=C/c1ccc(C(=O)NC2CCOCC2)c(Cl)c1)NC(c1cccc(C(F)(F)F)c1)C(F)(F)F (stereo not shown) [Ia-97] | – | HPLC-MS: logP = 2.99 mass | 100% | –
14 | C#CCNC(=O)c1ccc(/C=C/C(=O)NC(c2cccc(C(F)(F)F)c2)C(F)(F)F)cc1Br (stereo not shown) [Ia-105] | – | HPLC-MS: logP = 3.09 mass | 100% | –
15 | Cc1cc(/C=C/C(=O)NC(c2cccc(C(F)(F)F)c2)C(F)(F)F)ccc1C(=O)NC1COC1 (stereo not shown) [Ia-83] | – | HPLC-MS: logP = 2.69 mass | 100% | –
16 | O=C(/C=C/c1ccc(C(=O)Nc2ccc(Cl)cn2)c(Cl)c1)NC(c1cccc(C(F)(F)F)c1)C(F)(F)F (stereo not shown) [Ia-168] | 80% | HPLC-MS: logP = 4.28; mass | – | efficacy in % ([4]; application rate 100 g/ha): 100%
17 | CCNC(=O)c1ccc(/C=C/C(=O)NC(c2cccc(C(F)(F)F)c2)C(F)(F)F)cc1C(F)(F)F (stereo not shown) [Ia-64] | – | HPLC-MS: logP = 3.18; mass | 100% | efficacy in % ([4]; application rate 500 g/ha): 83%
18 | Cc1cc(/C=C/C(=O)NC(c2cccc(C(F)(F)F)c2)C(F)(F)F)ccc1C(=O)NC(C)C (stereo not shown) [Ia-102] | – | HPLC-MS: logP = 3.27 mass | 100% | –
19 | O=C(NC(c1cccc(C(F)(F)F)c1)C(F)(F)F)c1cc2cc(C(=O)NCc3ccccn3)c(Cl)cc2[nH]1 (racemic) [Ic-23] | – | – | 100% | logP [2, 5]: HPLC-MS: logP = 2.49; mass

Row | Compound | efficacy in % ([1]; application rate 100 g/ha) | logP ([2]; HPLC-MS) | efficacy in % [3] | further results
20 | O=C(/C=C/c1ccc(C(=O)NCC2CC2)c(Br)c1)NC(c1cccc(C(F)(F)F)c1)C(F)(F)F (stereo not shown) [Ia-180] | 90% | HPLC-MS: logP = 3.55; mass | – | –
21 | Cc1cc(/C=C/C(=O)NC(c2cccc(C(F)(F)F)c2)C(F)(F)F)ccc1C(=O)Nc1ccncc1 (stereo not shown) [Ia-88] | – | HPLC-MS: logP = 1.87 mass | 100% | –
22 | O=C(/C=C/c1ccc(C(=O)NCC(=O)NCC(F)(F)F)c(Cl)c1)NC(c1cccc(C(F)(F)F)c1)C(F)(F)F (stereo not shown) [Ia-107] | – | HPLC-MS: logP = 2.99 mass | 100% | –
23 | O=C(/C=C/c1ccc(C(=O)Nc2ncccn2)c(Cl)c1)NC(c1cccc(C(F)(F)F)c1)C(F)(F)F (racemic) [Ia-197] | 90% | HPLC-MS: logP = 2.95; mass | – | –
24 | CC(=O)N(Cc1ccc(/C=C/C(=O)NC(c2cccc(C(F)(F)F)c2)C(F)(F)F)cc1)Cc1ccccn1 (stereo not shown) [Ia-254] | 80% | HPLC-MS: logP = 2.65; mass | – | –
25 | Cc1cc(/C=C/C(=O)NC(c2cccc(C(F)(F)F)c2)C(F)(F)F)ccc1C(=O)NC1CCC1 (stereo not shown) [Ia-101] | – | HPLC-MS: logP = 3.53 mass | 100% | –
26 | O=C(NCc1ccc2oc(C(=O)NC(c3cccc(C(F)(F)F)c3)C(F)(F)F)cc2c1)c1ccccn1 (stereo not shown) [Ic-12] | – | – | – | efficacy in % ([1]; application rate 500 g/ha): 80%; logP [2, 5]: HPLC-MS: logP = 3.62; mass
27 | O=C(/C=C/c1ccc(C(=O)Nc2ccncc2)c(C(F)(F)F)c1)NC(c1cccc(C(F)(F)F)c1)C(F)(F)F (stereo not shown) [Ia-84] | – | HPLC-MS: logP = 1.99 mass | 100% | –
28 | O=C(/C=C/c1ccc(C(=O)NC2CC2c2ccccc2)c(C(F)(F)F)c1)NC(c1cccc(C(F)(F)F)c1)C(F)(F)F (stereo not shown) [Ia-71] | – | HPLC-MS: logP = 4.22; mass | 100% | –
29 | O=C(/C=C/c1ccc(C(=O)Nc2ccncn2)c(Cl)c1)NC(c1cccc(C(F)(F)F)c1)C(F)(F)F (stereo not shown) [Ia-184] | 100% | HPLC-MS: logP = 3.22; mass | – | –
30 | O=C(/C=C/c1ccc(C(=O)NC2CC2)c(C(F)(F)F)c1)NC(c1ccc(Cl)c(Cl)c1)C(F)(F)F (stereo not shown) [Ia-37] | – | HPLC-MS: logP = 3.41; mass | 100% | –
31 | C/C(=C\C(=O)NC(c1cccc(C(F)(F)F)c1)C(F)(F)F)c1ccc(C(=O)NC(C)C)c(C(F)(F)F)c1 (stereo not shown) [Id-4] | 90% | – | – | logP [2, 5]: HPLC-MS: logP = 3.75; mass
32 | CC(F)(F)CNC(=O)c1ccc(/C=C/C(=O)NC(c2cccc(C(F)(F)F)c2)C(F)(F)F)cc1Cl (stereo not shown) [Ia-111] | – | HPLC-MS: logP = 3.37 mass | 100% | –
33 | COC(=O)N(C)NC(=O)c1ccc(/C=C/C(=O)NC(c2cccc(C(F)(F)F)c2)C(F)(F)F)cc1Br (stereo not shown) [Ia-103] | – | HPLC-MS: logP = 2.89 mass | 100% | –
34 | CC(C#N)NC(=O)c1ccc(/C=C/C(=O)NC(c2cccc(C(F)(F)F)c2)C(F)(F)F)cc1Cl (stereo not shown) [Ia-160] | 100% | HPLC-MS: logP = 3.23; mass | – | –
35 | CC(C)NC(=O)c1ccc(/C=C/C(=O)NC(c2cccc(C(F)(F)F)c2)C(F)(F)F)cc1Br (stereo not shown) [Ia-174] | 100% | HPLC-MS: logP = 3.48; mass | – | –
36 | CN(C(=O)c1ccc(/C=C/C(=O)NC(c2cccc(C(F)(F)F)c2)C(F)(F)F)cc1Br)c1ccccn1 (stereo not shown) [Ia-89] | – | HPLC-MS: logP = 3.47 mass | 100% | –
37 | O=C(/C=C/c1ccc(C(=O)Nc2ccncc2)c(Br)c1)NC(c1cccc(C(F)(F)F)c1)C(F)(F)F (stereo not shown) [Ia-91] | – | HPLC-MS: logP = 1.96 mass | 100% | –
